SMILES strings stand for the structures.

One may read the logP as the decadic logarithm of the partition coefficient of the neutral form, usually between octanol and water. Low values mean a more hydrophilic compound, high ones a more lipophilic compound. In turn, `O=[N+]([O-])c1ccccc1` returned a logP of 1.85.

Take `CCOc1cccc(Cl)n1`: the logP amounted to 2.55.

`CCN(CC)N=Nc1ccc(S(C)(=O)=O)cc1` yielded a lipophilicity (logP) of 2.6.

On to `O=C(O)COc1cccc(Br)c1`, for which the logP worked out at 2.22.

`O=C(O)C=CC(=O)c1ccccc1` gave a logP of 1.53.

In the case of `O=[N+]([O-])c1ccc(C=NO)o1`, the logP came to 0.3.

In turn, `Clc1cccc(Cl)n1` gave a logP of 2.15.

Molecule `CN1CC(=O)NC1=N` gave a log partition coefficient (logP) of -1.76.

With `c1ccc2cnccc2c1`, the logP was determined as 2.08.

With `C=CCNCC`, the lipophilicity (logP) turned out to be 0.81.

For `O=C(Nc1ccccc1)NS(=O)(=O)c1ccc(Cl)cc1`, the log partition coefficient (logP) came out at 3.61.

The molecule `Cn1cccn1` showed a logP of 0.23.

Molecule `CCO[Si](C)(C)OCC` yielded a logP of 0.61.

`NC(Cc1c[nH]c2cccc(F)c12)C(=O)O` (stereo not drawn): the lipophilicity (logP) is -1.07.

`O=C1CCC(=O)N1c1cccc(I)c1` came in with a logP of 1.39.

`Cc1ccc(O)c(C(=O)O)c1` showed a logP of 2.78.

For `CCCCCOc1ccc(O)cc1`, the logP worked out at 3.5.

Regarding `CCCCn1cc(C)c(=O)[nH]c1=O`, the logP was determined as 0.91.

Regarding `CN(C)c1nc(Cl)nc(N(C)C)n1`, the lipophilicity (logP) amounted to 2.31.

Consider `Cc1[nH]cnc1CSCCNc1nc(=O)cc[nH]1`, for which the logP is 0.02.

`CSc1cccc(-c2nc(N)nc(N)n2)c1`: the logP stood at 2.16.

`COc1cc(O)ccc1O` yielded a logP of 0.47.

In the case of `CN(C)C(=O)Nc1ccc([N+](=O)[O-])cc1`, the logP amounted to 1.51.

As to `CCCN(CCC)CCC`, the logP was 2.79.

`COc1ccc2ncccc2c1` yielded a logP of 2.2.

With `OCc1ccc2cccnc2c1`, the log partition coefficient (logP) came to 1.29.

Consider `CCCCCCCOC(N)=O`, for which the logP worked out at 2.36.

With `O=[N+]([O-])c1ccc(OCCN2CCOCC2)cc1`, the logP came to 1.54.

The molecule `ClCCCCl` yielded a logP of 2.

The molecule `CC(=O)c1cccc(S(I)=C(N(C)C)N(C)C)c1` (stereo not drawn) displayed a logP of -0.88.

`NC(=O)OCc1ccc(Cl)cc1`: the logP came to 1.97.

Consider `CC1CCC(NC(=O)N(CCCl)N=O)CC1` (stereo not drawn), for which the lipophilicity (logP) worked out at 3.3.

`COc1ccc(C(C[N+](=O)[O-])c2ccc(OC)cc2)cc1`: the logP turned out to be 3.57.

Regarding `COc1ccc(C(=O)N(C)C)cc1`, the logP worked out at 0.96.

`CS(=O)CC(=O)C=NO` (stereo not drawn): the logP is -0.72.

The molecule `c1cn(C23CC4CC(CC(C4)C2)C3)cn1` had a logP of 2.9.

Molecule `Brc1cccnc1` returned a logP of 1.6.

`CNC1=C(N2CC2)C(=O)C(NC)=C(N2CC2)C1=O` displayed a logP of 0.13.

Turning to `CCc1ccncc1`, the logP stood at 1.65.

In the case of `CCCCCCc1ccc(O)cc1O`, the logP was 3.45.

The molecule `CCC(=O)OC1(C(C)=O)C(C)CC2C3CCC4=CC(=O)C=CC4(C)C3(F)C(=O)CC21C` (stereo not drawn) displayed a logP of 3.09.

The molecule `Cn1cnc([N+](=O)[O-])c1Sc1ncnc2nc[nH]c12` gave a logP of 0.1.

As to `CCc1nnc(NS(=O)(=O)c2ccc(N)cc2)s1`, the logP was determined as 1.01.

Take `CCCN(CCC)c1c([N+](=O)[O-])cc(C(F)(F)F)cc1[N+](=O)[O-]`: the logP was found to be 5.34.

`CCSCCSP(=O)(OC)OC` yielded a logP of 1.02.

In turn, `CCC(C)N` (stereo not drawn) had a logP of 0.74.

For `Cc1ccc(COC(=O)N(C)C)cc1`, the logP turned out to be 2.63.

In turn, `C1=c2ccc3cccc4ccc(c2c43)CC1` gave a lipophilicity (logP) of 4.92.

The molecule `O=C(Nc1ccccc1)c1ccccc1O` displayed a logP of 3.27.

As to `CC12CCC(=O)C=C1CCC1C2C(O)CC2(C)C1CCC2(O)C(=O)COC(=O)CCCCCC(N)=O` (stereo not drawn), the logP was determined as 2.3.

`CCc1ccccc1OCC(=O)O`: the logP stood at 2.53.

`C[Si](C)(C)Cc1ccccc1` showed a logP of 4.13.

For `COc1cc2c(c3c1c(=O)c1ccccc1n3C)C=CC(C)(C)O2`, the logP came to 3.67.

In turn, `CCC(=O)C1(c2cccc(OC(=O)C(C)(C)C)c2)CCN(C)CC1` came in with a log partition coefficient (logP) of 2.59.

For `CC(=O)N(C)c1ccc(O)cc1`, the logP is 0.61.

`c1ccc2[se]ccc2c1` yielded a logP of 3.19.

`CCC1(c2ccccc2)C(=O)NCNC1=O` had a logP of 0.91.

On to `O=C(NP(=O)(N1CC1)N1CC1)c1ccccc1Br`, for which the logP was found to be 1.08.

`NC(=O)c1cccc2[nH]ccc12` showed a logP of 0.66.

`CN(C)c1ccncc1` displayed a logP of 1.34.

`CCOCC(O)Cn1cnc([N+](=O)[O-])n1` (stereo not drawn) had a logP of -0.07.

`C[C@@H]1C[C@H]2[C@@H]3CCC4=CC(=O)C=C[C@]4(C)[C@@]3(F)[C@@H](O)C[C@]2(C)[C@@]1(O)C(=O)CO` had a logP of 1.83.

Regarding `CC(C)C(=O)Nc1ccccc1`, the logP was 1.95.

Take `C=C(C)C(=O)OCCO`: the logP was found to be 0.47.

The molecule `CC[C@H](C)C(=O)O[C@H]1C[C@H](O)C=C2C=C[C@H](C)[C@H](CC[C@@H]3C[C@@H](O)CC(=O)O3)[C@H]21` displayed a logP of 2.42.

The molecule `CCC(C)c1ccc(O)cc1` (stereo not drawn) registered a logP of 3.08.

Molecule `COc1ccc(N)cc1Cl` gave a logP of 1.85.

In turn, `CC(O)CNCC(C)O` (stereo not drawn) yielded a logP of -0.82.

As for `Cc1n[nH]c(C(=O)N(C)Cc2ccccc2)c1[N+](=O)[O-]`, the logP came out at 1.65.

In the case of `CC12CCC3C(CCC4(O)CC(O)CCC34C=O)C1(O)CCC2C1=CC(=O)OC1` (stereo not drawn), the logP stood at 0.64.

`CCCCCCn1cc(C)c(=O)[nH]c1=O` displayed a logP of 1.93.

In turn, `ClC1CC(Cl)C(Cl)C(Cl)C1Cl` (stereo not drawn) came in with a logP of 3.53.

For the molecule `Sc1ccccn1`, the lipophilicity (logP) is -0.13.

As for `CCCCBr`, the logP came to 2.75.

On to `S=C=Nc1ccc(Br)cc1`, for which the logP is 4.03.

In the case of `O=C(O)COc1cccc(C(F)(F)F)c1`, the logP was determined as 2.36.

For the molecule `O=C(Nc1ccccc1)C(F)(F)F`, the logP came to 2.21.

The molecule `CCC(C)NC(=O)C=Cc1ccccc1` (stereo not drawn) returned a logP of 2.85.

`CC(C)(C)C` yielded a logP of 3.11.

`C=C` returned a logP of 1.13.

The molecule `CC(NNC(=O)COc1ccccc1)c1ccccc1` (stereo not drawn) gave a logP of 2.46.

`Nc1nncs1` showed a logP of -0.57.

Molecule `c1ccc2c(c1)-c1cccc3cccc-2c13` showed a logP of 5.16.

In the case of `O=C(O)CCCCCc1ccccc1`, the logP turned out to be 3.27.

`O=C(O)C(c1ccc(-c2ccccc2)cc1)C(O)c1ccccc1F` (stereo not drawn) had a logP of 3.77.

For `CCN(CC)C(=O)[C@@H]1C=C2c3cccc4[nH]cc(c34)C[C@H]2N(C)C1`, the logP is 2.95.

Molecule `NC(=O)CF` came in with a logP of -1.05.

With `Cc1ccc(C(N)=O)cc1`, the logP was determined as 1.18.

`O=Cc1ccc2c(c1)OCO2` returned a logP of 1.05.

`CN(CC(C)(C)C)N=O` showed a lipophilicity (logP) of 1.34.

Molecule `c1ccc(C2CO2)cc1` (stereo not drawn) had a logP of 1.61.

As for `CCCCCCN(C)N=Nc1ccc(C(N)=O)cc1`, the logP stood at 3.69.

As to `N#Cc1ccccc1`, the logP was found to be 1.56.

With `CC(=NNC(=S)NNC(=S)N(C)C)c1ccccn1`, the log partition coefficient (logP) worked out at 1.25.

In turn, `O=[N+]([O-])c1ccco1` had a logP of 0.66.

Consider `NS(=O)(=O)Nc1ccccc1`, for which the logP turned out to be 0.4.

The molecule `Nc1nc(=O)c2ccccc2o1` gave a logP of 0.27.

With `COP1(=S)OCc2ccccc2O1` (stereo not drawn), the logP is 2.67.

`CC(=O)OC1CCCCC1NC(=O)N(CCCl)N=O` (stereo not drawn) registered a log partition coefficient (logP) of 1.98.

In the case of `Cc1ncc([N+](=O)[O-])n1CCCl`, the log partition coefficient (logP) was determined as 0.88.

In turn, `CCOC(=O)C(O)c1ccccc1` (stereo not drawn) returned a log partition coefficient (logP) of 1.53.

In turn, `C[N+](C)(C)c1ccccc1.[I-]` yielded a logP of -2.74.

The molecule `CN(N=O)C(=O)Nc1ccccc1` displayed a logP of 1.72.

`CC(=O)C(C)(C)C` came in with a logP of 1.2.

Regarding `CCCCCCOc1ccc(S(N)(=O)=O)cc1`, the logP is 2.93.

Regarding `C[C@H]1C[C@H]2[C@@H]3CCC4=CC(=O)C=C[C@]4(C)[C@@]3(F)[C@@H](O)C[C@]2(C)[C@@]1(O)C(=O)CCl`, the logP was 2.48.

Consider `CS(=O)(=O)Oc1ccccc1`, for which the log partition coefficient (logP) amounted to 1.25.

`O=C1c2ccccc2-c2ccccc21`: the logP turned out to be 3.58.

On to `CN1CCc2cccc3c2[C@H]1Cc1ccc(O)c(O)c1-3`, for which the logP turned out to be 2.3.

For `NC(=O)c1ccoc1`, the logP was found to be 0.09.

Turning to `CC(Cl)(Cl)C(=O)O`, the logP turned out to be 0.78.

Take `O=CNc1ccc(Cl)cc1`: the logP worked out at 2.04.

Molecule `CC12CCC(=O)C=C1CCC1C3CCC4(CCC(=O)O4)C3CCC12C` (stereo not drawn) yielded a logP of 2.98.

Molecule `C[C@H](N[C@H](CCc1ccccc1)C(=O)O)C(=O)N1CCC[C@H]1C(=O)O` came in with a logP of -0.74.

On to `CCOC(=O)C(Cc1ccccc1)C(=O)OCC`, for which the log partition coefficient (logP) amounted to 2.76.

For `CC(C)(C)N`, the logP stood at 0.4.

In the case of `CN(C)C(N(C)C)=S(I)c1ccc(C#N)cc1` (stereo not drawn), the logP is -1.13.

`CNC(=O)Oc1ccc(C#N)cc1`: the logP is 0.95.

The molecule `COP(=O)(OC)OC=C(Cl)Cl` showed a logP of 1.43.

As to `COC(N)=O`, the logP was -0.66.

`N#Cc1cccc(CC(=O)O)c1` showed a log partition coefficient (logP) of 1.18.

Consider `C(=NN1CCCCC1)c1ccccc1`, for which the logP is 3.04.

In turn, `O=C(CI)NC(CO)C(O)c1ccc([N+](=O)[O-])cc1` (stereo not drawn) had a logP of 1.03.

For `CCC1COC(Cn2cncn2)(c2ccc(-c3ccccc3)cc2)O1` (stereo not drawn), the logP was found to be 3.71.

`CC(=O)Nc1ccc2ncccc2c1` displayed a logP of 1.55.

As to `CC(C)(O)C(C(=O)O)c1ccc(-c2ccccc2)cc1` (stereo not drawn), the logP was determined as 3.25.

In turn, `CC(=C(C#N)C#N)c1ccccc1` gave a log partition coefficient (logP) of 2.1.

In turn, `O=C(O)CCl` gave a logP of 0.22.

For the molecule `C=CCOc1noc2c1CNCC2`, the logP was found to be 0.56.

Regarding `O=C(CC(=O)C(F)(F)F)c1cccs1`, the logP is 1.46.

`Cn1cccc1C=NNC(=S)Nc1ccccc1` yielded a log partition coefficient (logP) of 3.64.

Consider `NC(=O)CCN1CCc2cccc(Cl)c2CC1`, for which the logP was 1.64.

For the molecule `O=c1cccccc1O`, the logP stood at 0.53.

The molecule `CNC(=O)Oc1cc(C)c(Cl)cc1Cl` displayed a logP of 3.

Molecule `COC(=O)Cc1ccccc1` came in with a logP of 1.83.

As for `CCNCc1cccnc1`, the logP worked out at 0.76.

Take `O=C1NC(=S)NC(=O)C1C(=O)Nc1ccccc1`: the logP was 0.14.

Consider `c1ccc(CNc2ccccc2)cc1`, for which the logP is 3.13.

(Values after the OPERA property sets (Mansouri et al. 2018).)
